The structures appear in SMILES notation. Calls of active or inactive are those of the source.

The nature of assay [1]: NIH-3T3 fibroblast cytotoxicity, dose response, cytotoxicity control, cell-based, fluorescence, Alamar Blue, secondary assay (AID 2327).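 Also: NIH-3T3 mouse fibroblasts cultured with fluconazole at 8 µg/mL.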 The assay is classed as functional. (Alamar Blue is a resazurin reagent that responds to reducing activity.)
The nature of assay [2]: fluconazole-exposed Candida albicans growth modulators – fluorescence, retest, confirmation (AID 2467). The class given is functional, cell-based.
Assay [3] can be described thus: reduced cellular PGC1a acetyl-lysine signal – cell-based, cherry-picked samples, dose response (AID 720514).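 Also: potency may reflect raised or lowered acetylation signal.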 The assay is classed as functional.
In assay [4] the target is Eukaryotic translation initiation factor 4E (Mus musculus, UniProt P63073). Nature of the assay: blockers of eIF4G binding by eIF4E – biochemical, TR-FRET, dose response (AID 855).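 Also: potency for disrupting eIF4E binding to eIF4GI seen as loss of FRET.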 The class given is functional. Background: TR-FRET usually uses a lanthanide donor and a delayed reading to cut background.
Assay [5] can be described thus: HIV-1 Vif–A3G interaction blockers – biochemical, TR-FRET, GST-Vif 1-94, biotin-A3G peptide, dose response retest, primary screen (AID 1117319).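 Also: TR-FRET signal of purified GST-Vif binding a biotinylated A3G peptide; inhibitors lower the FRET signal by blocking Vif and A3G binding.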 The class given is functional.
Assay [6] concerns the target Voltage-dependent T-type calcium channel subunit alpha-1H (Homo sapiens, UniProt O95180). The assay is classed as functional.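 Also: channel activity triggered by adding a high calcium stimulation buffer.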
Assay [7] can be described thus: viability inhibitors of stage V gametocytes – luminescence, dose response (AID 1117278).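 Also: gametocytes exposed to compound for 24 hours.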 The class given is functional, cell-based.
A short description of assay [8]: viability loss in human Jurkat cells – cell-based, luminescence, cytotoxicity control for P. falciparum gametocyte viability project, dose response (AID 1117277).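 Also: potency reflects loss of cellular ATP meaning fewer viable cells.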 The class given is functional.
In assay [9] the target is T1, Estrogen receptor beta (Homo sapiens, UniProt Q92731).
The next assay concerns the target T2, CAAX prenyl protease 2 (Saccharomyces cerevisiae S288c, UniProt Q03530).
T2 sequence (Q03530 whole entry): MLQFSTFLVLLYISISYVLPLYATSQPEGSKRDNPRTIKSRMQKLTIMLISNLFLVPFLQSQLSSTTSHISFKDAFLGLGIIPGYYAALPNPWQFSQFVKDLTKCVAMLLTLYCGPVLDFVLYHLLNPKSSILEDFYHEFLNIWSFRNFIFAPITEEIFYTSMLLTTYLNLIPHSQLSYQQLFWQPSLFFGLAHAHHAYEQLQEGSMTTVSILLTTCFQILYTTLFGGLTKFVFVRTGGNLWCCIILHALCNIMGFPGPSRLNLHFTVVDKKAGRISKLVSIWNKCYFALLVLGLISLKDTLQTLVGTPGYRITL
The class given is biochemical.

Assay [10] is described as follows: viability loss in THP-1 monocytes – THP-1 cells, cytotoxicity control for Vif-APOBEC3G degradation inhibitor project, dose response (AID 1117359). The assay is classed as functional. The settings on record: THP-1.
Assay [11] in a line: microbe, parasite or virus in culture. The class given is functional. The settings on record: Mycobacterium tuberculosis.
For the next assay, the target named is Ephrin type-A receptor 4 (Mus musculus, UniProt Q03137). Description: EphA4 ligand-binding antagonists – biochemical, colorimetric, mouse EphA4, primary screen (AID 689). The assay is classed as functional.
A short description of assay [12]: THP-1 cell cytotoxicity, dose response, cytotoxicity control for non-replicating M. tuberculosis project (AID 489025). The assay is classed as functional.
Assay [13] in a line: cells. The class given is functional.
In a further assay the target is Cytochrome P450 2D6 (Homo sapiens, UniProt P10635).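 Also: CYP2D6 member of a cytochrome P450 panel assay.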
For a further assay, the target named is Cytochrome P450 2C9 (Homo sapiens, UniProt P11712).
Assay [14] has as its target Sphingosine 1-phosphate receptor 2 (Homo sapiens, UniProt O95136). Description: Dose Response Cell Based Assay for Agonists of the S1P2 Receptor. [Related pubchem assays: 729, 736, 843 ]. The class given is functional.
In assay [15] the target is E3 ubiquitin-protein ligase Mdm2 (Homo sapiens, UniProt Q00987). Nature of the assay: MDM2-luc reporter signal enhancers, multi-concentration potency testing, MDM2 ubiquitin-protein ligase inhibitor program, whole-cell format, luminescence detection, 384-well microplate (AID 1394).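 Also: MDM2 E3 inhibitors raise luminescence so EC50 is for signal enhancement.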 The class given is functional.
The next assay addresses Melanocortin receptor 4 (Homo sapiens, UniProt P32245). The class given is functional, cell-based.
The target in assay [16] is Oxysterols receptor LXR-beta (Homo sapiens, UniProt P55055). The assay is classed as functional, cell-based.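 Also: Cell-based luminescence dose-response assay of agonist activity at LXR, run as a confirmatory counterscreen to a daf-12 agonist screen; HEK293 cells with Gal4-LXR fusion and GAL4-driven luciferase reporter; agonist potency from rising luciferase signal of a Gal4-LXR reporter.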
Assay [17] can be described thus: cells.
Assay [18] can be described thus: rise of 2N DNA cells, HeLa – IC50, dose response (AID 1117349). The assay is classed as functional, cell-based.
A short description of assay [19]: IC50 of insulin release inhibition, rat insulinoma INS-1E line, 5 mM glucose, cell-based (AID 1117331). The class given is functional.
Assay [20] can be described thus: cells. The class given is functional, cell-based. The settings on record: INS-1E.
The nature of assay [21]: rise of 4N DNA cells, HeLa – IC50, dose response (AID 1117351). The assay is classed as functional, cell-based.
The nature of assay [22]: Trypanosoma cruzi growth suppression in host cells – NIH3T3 host cells, beta-gal luminescence, confirmation (AID 2044).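 Also: intracellular parasites grown in NIH/3T3 mouse fibroblasts as host cells; luminescent beta-galactosidase reporter signal from transgenic T. cruzi replicating inside host cells; inhibitors lower the luminescence signal.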 The assay is classed as functional, cell-based.
A short description of assay [23]: NIH3T3 cell viability loss – ATP luminescence, mouse fibroblasts, counter-screen, dose response (AID 2010).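 Also: cells exposed to compound for about 90 hours before reading.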 The assay is classed as functional, cell-based.
The target in assay [24] is Glucose-6-phosphate 1-dehydrogenase (Homo sapiens, UniProt P11413). Nature of the assay: inhibition of Homo sapiens G6PD, dose series – biochemical, fluorescence, selectivity assay for P. falciparum G6PD inhibitor project, dose response (AID 504792). The class given is functional.
Another assay has as its system CHO. Description: CHO cell viability loss, potency – luminescence, cytotoxicity control for TLR9-MyD88 binding inhibitor project, dose response (AID 588339).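 Also: CHO cells stably coexpressing TLR9 and MyD88 fusions from primary screen; compound exposure lasted 48 hours before viability readout.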 The assay is classed as functional, cell-based, hamster. The settings on record: Cricetulus griseus.
For another assay, the target named is Beta Lactamase (Pseudomonas aeruginosa, UniProt Q932Y6). Description: BLA reporter interference, concentration series – BLA reporter cells, FRET fluorescence, artefact control for TLR9-MyD88 binding inhibitor project, dose response (AID 588341).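 Also: cell based assay in CHO-K1 cells stably expressing beta-lactamase.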 The assay is classed as cell-based.
The nature of assay [25]: reduction of Shn3 3'UTR-driven luciferase in osteoblasts – cell-based, Clone20 osteoblasts, firefly luciferase, cherry-picked, dose response (AID 624132).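 Also: firefly luciferase luminescence from reporter carrying the Shn3 3'UTR in osteoblasts.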 The assay is classed as functional.
A short description of assay [26]: loss of viability in HepG2 cells – cell-based, CellTiter-Glo, cherry-picked, cytotoxicity control for Shn3 inhibitor project, dose response (AID 624134). The class given is functional. A general note: In ATP-based viability assays light output follows the ATP content of the culture.
A short description of assay [27]: non-specific 3'UTR reporter inhibition in Clone20-Shn3RL – cell-based, Renilla luciferase, cherry-picked, counter-screen for Shn3 inhibitor project, dose response (AID 624133). The class given is functional.
The target in assay [28] is T3, Rac GTPase-activating protein 1 (Homo sapiens, UniProt Q9H0H5).
T3 sequence (Q9H0H5 whole entry): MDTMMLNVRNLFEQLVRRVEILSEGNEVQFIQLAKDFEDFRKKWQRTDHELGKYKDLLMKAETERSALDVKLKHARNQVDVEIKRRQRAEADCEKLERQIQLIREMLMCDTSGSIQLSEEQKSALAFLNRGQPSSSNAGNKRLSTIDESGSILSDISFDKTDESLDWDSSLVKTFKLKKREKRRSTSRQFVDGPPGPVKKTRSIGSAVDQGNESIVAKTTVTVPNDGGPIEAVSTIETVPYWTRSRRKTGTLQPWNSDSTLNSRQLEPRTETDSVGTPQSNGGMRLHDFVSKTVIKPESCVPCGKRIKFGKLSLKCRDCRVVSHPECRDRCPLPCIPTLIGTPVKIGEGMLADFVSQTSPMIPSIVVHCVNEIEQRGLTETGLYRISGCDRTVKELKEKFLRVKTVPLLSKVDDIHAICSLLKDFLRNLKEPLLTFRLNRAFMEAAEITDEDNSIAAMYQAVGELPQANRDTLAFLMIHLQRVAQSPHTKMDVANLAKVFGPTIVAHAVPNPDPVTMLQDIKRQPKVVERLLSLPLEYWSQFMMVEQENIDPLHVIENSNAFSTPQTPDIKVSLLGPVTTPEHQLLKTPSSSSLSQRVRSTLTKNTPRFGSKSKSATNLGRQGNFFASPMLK
Nature of the assay: blockers of MgcRacGAP-driven Rac1 GTP hydrolysis – biochemical, ADP Hunter fluorescence, primary and confirmatory, confirmation (AID 624330). The class given is functional.

Assay [29] has as its target T4, Tyrosine-protein phosphatase non-receptor type 7 (Homo sapiens, UniProt P35236).
T4 sequence (P35236 whole entry): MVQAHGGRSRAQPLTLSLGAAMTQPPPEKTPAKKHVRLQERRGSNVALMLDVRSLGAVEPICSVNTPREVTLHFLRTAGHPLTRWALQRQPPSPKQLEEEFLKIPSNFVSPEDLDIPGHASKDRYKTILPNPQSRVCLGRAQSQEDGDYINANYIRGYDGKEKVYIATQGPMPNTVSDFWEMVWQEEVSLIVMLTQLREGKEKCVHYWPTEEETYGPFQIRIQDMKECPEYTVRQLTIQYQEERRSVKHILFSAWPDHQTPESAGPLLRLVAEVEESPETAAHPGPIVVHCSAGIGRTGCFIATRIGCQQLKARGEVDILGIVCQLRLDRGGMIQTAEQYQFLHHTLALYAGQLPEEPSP
Description: HePTP tyrosine phosphatase activity blockers – biochemical, absorbance, leukemia target, primary screen (AID 521). The class given is functional.

Assay [30] concerns the target T1, Estrogen receptor beta. Description: blockers of SRC-3 recruitment to ERβ – biochemical, ELISA, streptavidin-HRP readout, orthogonal assay, confirmation (AID 1060).
For assay [31], the target named is T5, Low molecular weight phosphotyrosine protein phosphatase (Homo sapiens, UniProt P24666).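 Also: Dose-response confirmation assay measuring inhibition of LMPTP enzyme activity by fluorescence intensity read-out.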
T5 sequence (P24666 whole entry): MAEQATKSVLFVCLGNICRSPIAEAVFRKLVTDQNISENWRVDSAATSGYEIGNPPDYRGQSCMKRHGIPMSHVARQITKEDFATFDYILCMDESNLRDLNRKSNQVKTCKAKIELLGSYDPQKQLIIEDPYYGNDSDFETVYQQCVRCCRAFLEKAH
The class given is functional. The settings on record: read-out: IC50_Mean.

T1 sequence (Q92731 whole entry): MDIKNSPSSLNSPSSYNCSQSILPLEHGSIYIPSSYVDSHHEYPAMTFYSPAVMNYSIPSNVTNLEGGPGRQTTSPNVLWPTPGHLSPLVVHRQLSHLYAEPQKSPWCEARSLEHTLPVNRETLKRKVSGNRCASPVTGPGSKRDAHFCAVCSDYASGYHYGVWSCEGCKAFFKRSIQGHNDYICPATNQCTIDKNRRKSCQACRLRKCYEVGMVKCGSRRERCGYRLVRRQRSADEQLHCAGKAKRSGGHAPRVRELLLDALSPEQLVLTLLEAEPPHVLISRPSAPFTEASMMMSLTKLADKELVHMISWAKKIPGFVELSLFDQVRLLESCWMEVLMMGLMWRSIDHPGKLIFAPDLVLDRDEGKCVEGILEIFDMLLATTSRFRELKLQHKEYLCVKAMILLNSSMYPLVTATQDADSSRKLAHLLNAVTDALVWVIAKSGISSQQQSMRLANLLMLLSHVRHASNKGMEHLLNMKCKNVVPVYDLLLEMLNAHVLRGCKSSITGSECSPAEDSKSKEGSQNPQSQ
Cytochrome P450 2D6, sequence (P10635 whole entry): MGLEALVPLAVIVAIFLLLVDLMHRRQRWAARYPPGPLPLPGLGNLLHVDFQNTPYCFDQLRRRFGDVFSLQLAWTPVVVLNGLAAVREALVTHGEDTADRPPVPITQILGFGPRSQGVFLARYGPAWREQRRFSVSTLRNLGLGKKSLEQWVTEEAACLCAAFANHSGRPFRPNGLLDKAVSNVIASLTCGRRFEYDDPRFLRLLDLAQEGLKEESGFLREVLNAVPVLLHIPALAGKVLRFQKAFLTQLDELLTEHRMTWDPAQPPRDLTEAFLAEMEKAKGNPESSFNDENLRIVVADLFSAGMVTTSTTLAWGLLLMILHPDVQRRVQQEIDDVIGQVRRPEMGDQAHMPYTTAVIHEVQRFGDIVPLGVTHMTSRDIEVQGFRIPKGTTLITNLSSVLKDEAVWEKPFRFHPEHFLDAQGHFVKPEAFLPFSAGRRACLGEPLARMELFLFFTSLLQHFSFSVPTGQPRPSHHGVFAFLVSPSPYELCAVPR
Eukaryotic translation initiation factor 4E, sequence (P63073 whole entry): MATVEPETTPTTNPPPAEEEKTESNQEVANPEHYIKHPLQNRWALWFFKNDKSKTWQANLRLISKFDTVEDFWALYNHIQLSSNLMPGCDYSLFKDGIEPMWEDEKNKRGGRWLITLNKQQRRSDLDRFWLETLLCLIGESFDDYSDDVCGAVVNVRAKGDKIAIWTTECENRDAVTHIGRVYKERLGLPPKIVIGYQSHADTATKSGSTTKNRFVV
Sphingosine 1-phosphate receptor 2, sequence (O95136 whole entry): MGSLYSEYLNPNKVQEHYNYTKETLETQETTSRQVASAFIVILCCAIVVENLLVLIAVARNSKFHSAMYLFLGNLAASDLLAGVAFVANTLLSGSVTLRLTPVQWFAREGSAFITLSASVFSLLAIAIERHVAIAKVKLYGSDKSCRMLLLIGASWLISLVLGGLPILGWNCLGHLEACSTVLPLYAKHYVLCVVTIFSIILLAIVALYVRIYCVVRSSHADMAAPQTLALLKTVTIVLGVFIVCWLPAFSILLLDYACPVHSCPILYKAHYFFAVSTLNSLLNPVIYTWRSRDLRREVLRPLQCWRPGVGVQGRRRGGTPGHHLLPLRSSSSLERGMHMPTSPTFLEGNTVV
Oxysterols receptor LXR-beta, sequence (P55055 whole entry, the tested form may be a part): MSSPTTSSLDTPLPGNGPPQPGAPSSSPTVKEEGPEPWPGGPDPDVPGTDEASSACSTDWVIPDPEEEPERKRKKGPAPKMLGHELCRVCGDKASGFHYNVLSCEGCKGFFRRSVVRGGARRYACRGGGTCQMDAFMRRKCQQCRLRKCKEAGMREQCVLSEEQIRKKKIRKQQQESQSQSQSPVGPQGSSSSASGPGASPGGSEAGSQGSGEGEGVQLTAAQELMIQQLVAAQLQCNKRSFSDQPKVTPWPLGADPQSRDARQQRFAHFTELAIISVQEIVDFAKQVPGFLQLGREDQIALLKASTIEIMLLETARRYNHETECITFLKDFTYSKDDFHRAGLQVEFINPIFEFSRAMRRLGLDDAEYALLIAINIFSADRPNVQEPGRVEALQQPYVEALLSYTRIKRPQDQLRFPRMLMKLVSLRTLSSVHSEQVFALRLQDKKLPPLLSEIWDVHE
Melanocortin receptor 4, sequence (P32245 whole entry, the tested form may be a part): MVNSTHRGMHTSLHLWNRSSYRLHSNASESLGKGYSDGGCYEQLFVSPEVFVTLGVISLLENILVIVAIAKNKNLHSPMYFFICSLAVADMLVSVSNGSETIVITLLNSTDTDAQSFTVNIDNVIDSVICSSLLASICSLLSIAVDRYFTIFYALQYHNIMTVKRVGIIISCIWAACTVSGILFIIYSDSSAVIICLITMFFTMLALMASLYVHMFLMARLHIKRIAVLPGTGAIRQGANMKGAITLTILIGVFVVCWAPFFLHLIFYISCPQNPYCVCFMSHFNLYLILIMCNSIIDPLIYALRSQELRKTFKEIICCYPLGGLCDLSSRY
E3 ubiquitin-protein ligase Mdm2, sequence (Q00987 whole entry): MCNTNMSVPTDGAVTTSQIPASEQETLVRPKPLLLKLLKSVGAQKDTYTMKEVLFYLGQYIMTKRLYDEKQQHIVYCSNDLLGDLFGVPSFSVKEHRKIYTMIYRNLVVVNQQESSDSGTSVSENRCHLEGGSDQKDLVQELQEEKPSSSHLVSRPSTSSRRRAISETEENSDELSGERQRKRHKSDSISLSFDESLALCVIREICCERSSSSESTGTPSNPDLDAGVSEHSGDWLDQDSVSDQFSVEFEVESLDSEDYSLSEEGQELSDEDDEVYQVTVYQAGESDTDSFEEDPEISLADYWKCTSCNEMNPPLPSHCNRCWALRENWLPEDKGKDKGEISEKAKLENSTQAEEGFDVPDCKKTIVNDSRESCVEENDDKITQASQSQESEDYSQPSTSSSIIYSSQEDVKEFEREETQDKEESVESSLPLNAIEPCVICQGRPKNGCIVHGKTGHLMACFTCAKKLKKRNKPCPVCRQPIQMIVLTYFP
Glucose-6-phosphate 1-dehydrogenase, sequence (P11413 whole entry, the tested form may be a part): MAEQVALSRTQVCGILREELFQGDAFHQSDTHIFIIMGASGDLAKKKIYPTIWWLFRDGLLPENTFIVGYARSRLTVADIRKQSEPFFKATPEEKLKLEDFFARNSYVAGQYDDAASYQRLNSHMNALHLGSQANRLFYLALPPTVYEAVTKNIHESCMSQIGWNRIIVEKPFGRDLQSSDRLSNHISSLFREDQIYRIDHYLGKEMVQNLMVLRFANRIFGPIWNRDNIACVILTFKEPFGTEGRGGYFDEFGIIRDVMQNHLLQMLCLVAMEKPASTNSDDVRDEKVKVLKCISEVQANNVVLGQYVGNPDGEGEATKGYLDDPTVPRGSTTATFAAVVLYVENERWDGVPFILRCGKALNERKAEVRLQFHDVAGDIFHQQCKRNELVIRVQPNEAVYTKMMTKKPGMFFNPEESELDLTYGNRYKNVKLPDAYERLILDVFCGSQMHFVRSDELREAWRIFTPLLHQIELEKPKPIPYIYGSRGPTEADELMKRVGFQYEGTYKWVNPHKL
Cytochrome P450 2C9, sequence (P11712 whole entry): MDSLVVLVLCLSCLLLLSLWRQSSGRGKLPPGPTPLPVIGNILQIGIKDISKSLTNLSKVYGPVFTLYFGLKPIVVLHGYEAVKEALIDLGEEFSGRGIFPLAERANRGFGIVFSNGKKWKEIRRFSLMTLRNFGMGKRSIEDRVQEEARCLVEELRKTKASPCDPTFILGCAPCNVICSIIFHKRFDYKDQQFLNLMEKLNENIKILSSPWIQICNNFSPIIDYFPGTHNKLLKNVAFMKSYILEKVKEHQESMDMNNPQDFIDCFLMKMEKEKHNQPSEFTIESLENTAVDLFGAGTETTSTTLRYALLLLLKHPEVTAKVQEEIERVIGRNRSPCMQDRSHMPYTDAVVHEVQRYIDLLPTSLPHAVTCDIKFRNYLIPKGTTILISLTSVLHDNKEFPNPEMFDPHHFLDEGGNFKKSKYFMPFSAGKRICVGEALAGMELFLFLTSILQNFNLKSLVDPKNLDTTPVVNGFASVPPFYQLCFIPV
Beta Lactamase, sequence (Q932Y6 whole entry): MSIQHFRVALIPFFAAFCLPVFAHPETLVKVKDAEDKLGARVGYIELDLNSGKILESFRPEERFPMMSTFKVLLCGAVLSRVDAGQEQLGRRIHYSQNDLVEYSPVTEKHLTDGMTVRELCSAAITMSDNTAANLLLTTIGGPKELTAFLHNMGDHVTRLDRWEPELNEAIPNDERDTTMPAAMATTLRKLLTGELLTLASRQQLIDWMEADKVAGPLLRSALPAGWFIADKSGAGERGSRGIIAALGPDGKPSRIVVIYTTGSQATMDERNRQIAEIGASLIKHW

Turning to `Sc1ncnc2c1cnn2Cc1ccccc1`, the EC50 (commonly the concentration that produces a half-maximal response) in [1] was > 150 µM (inactive); in [2], 3.56 µM (active). In addition, the AC50 (in general, the concentration giving half of the maximal activity seen) in assay [3] is 11.2 µM (active).
For the molecule `CCn1c(SCC(=O)NCc2ccc3c(c2)OCO3)nnc1-c1cccs1`, the results for the IC50 in assay [4] and in assay [5] were > 64 µM (inactive) and > 100 µM (active), respectively.
As to `COc1ccc(-c2ccc([C@@H]3[C@@H]4CN(Cc5ccccn5)C[C@H]3N4)cc2)cc1`, the half-maximal activity concentration (AC50) in assay [3] was 28.7 µM (active).
As for `COc1ccc(OC)c(NC(=O)C2CCN(Cc3cnn(-c4ccccc4)c3-n3cccc3)CC2)c1`, in [6], the EC50 is 2.48 µM (active). In addition, the IC50 in [7] was > 109 µM (inactive); in assay [8], > 83.3 µM (inactive).
With `C[C@]12CCC(=O)C=C1CCC1C2CC[C@@]2(C)C1CC[C@@]2(O)CC#N` (some centres not stated), the IC50 against Estrogen receptor beta [9] is reported as > 50 µM (not active).
Turning to `COC(=O)C1CCCN1S(=O)(=O)c1ccc2ccccc2c1` (configuration not stated), at CAAX prenyl protease 2, the AC50 was 8.28 µM (active). The CC50 in [10] was > 40 µM (active).
`CCCCCCOC(=O)C(C#N)c1nc2ccccc2nc1N1CCN(CC)CC1` (configuration not stated): the CC50 is 19.7 µM (active) in [11] and 24.7 µM (active) in assay [12]. Further, the IC50 is > 100 µM (not active) at Ephrin type-A receptor 4 and 13.6 µM (active) in the assay “cells [13]”. For the same molecule, the AC50 on Cytochrome P450 2D6 is 25.1 µM (inconclusive); at Cytochrome P450 2C9, 7.94 µM (inconclusive).
For the molecule `c1ccc(-c2nc3ccccn3c2NCc2ccc3c(c2)OCO3)cc1`, the half-maximal effective concentration (EC50) in assay [14] is on record as > 50 µM (not active).
On to `Clc1ccccc1/C=N/NC1=Nc2cccc3cccc1c23`, for which the EC50 in assay [15] is 10.6 µM (not active); at Melanocortin receptor 4 it was > 89.3 µM (inactive); in assay [16] it was > 67.6 µM (inactive); in “cells [17]” it was > 67.6 µM (inactive).
For the molecule `CSc1ccc2c(c1)C(N1CCN(C)CC1)Cc1ccccc1S2` (configuration not stated) [METITEPINE], the IC50 in assay [18] is > 10 µM (inactive); in [19], 2.94 µM (active); in “cells [20]” it was > 33.3 µM (inactive); in assay [21], > 10 µM (inactive).
On to `CCCNCC(O)COc1ccccc1C(=O)CCc1ccccc1` (configuration not stated) [PROPAFENONE], for which the IC50 was > 10 µM (inactive) in [18], 4.92 µM (active) in assay [19], > 33.3 µM (inactive) in the assay “cells [20]” and > 10 µM (inactive) in assay [21].
Consider `CC(C)C(Nc1ncnc2c1oc1ccccc12)C(=O)O` (configuration not stated), for which the EC50 in assay [22] was 12.6 µM (active); in assay [23], 10.8 µM (active). Also, the values for the IC50 in assay [7] and in assay [8] were > 109 µM (inactive) and > 83.3 µM (inactive), respectively.
Regarding `COc1cc(N2C(=O)C=CC2=O)ccc1N1C(=O)C=CC1=O`, the IC50 in assay [24] is 57.4 µM (inactive); in the assay on CHO, 1.59 µM (active); at Beta Lactamase, 11 µM (inactive); in assay [28], 53.8 µM (active); in [5], > 100 µM (active). In addition, the AC50 in [25] is 2.32 µM (active); in assay [26] it was 15.8 µM (active); in assay [27], 12.5 µM (active).
Take `CCc1nc2sc3ccccc3c(=O)c2c(=O)n1Cc1ccco1`: the IC50 in assay [29] was 15.1 µM (active); at Estrogen receptor beta [9], 6.59 µM (active); against Estrogen receptor beta [30], 12.6 µM (not active); in [31], 52.2 µM (inactive).

(Values after ChEMBL document CHEMBL1201862, “PubChem BioAssay data set” (2004).)
